Measurements reported in patent US8957033B2, “Inhibitor of sodium-dependent glucose transport protein and preparation method therefor and use thereof” (Beijing Prelude Pharm. SCI. & Tech. Co., Ltd., priority 2011, dated 2015).
Where two headings read alike, the source gives them in different places.

Legend:
[1] = male, 2 μM
Experimental: (§4) 1) Master solution was prepared according to Table 1, and then the test compounds and control compound were added into the master solution, with the final concentration of these compounds in the reaction system being 2 μM. Then the mixed solution was preheated at 37° C. for 2 minutes.
(§5) 2) NADPH was added into the mixed solution with the final concentration of NADPH being 1 mM, and then the reaction system was incubated at 37° C. The blank control was also added with the same volume of ultrapure water instead of NADPH.
(§6) 3) 50 μL aliquots were taken out from the reaction system at 0, 15, 30, 45 and 60 minutes, and added with 3 volumes of cold methanol to terminate the reaction. The aliquot was centrifugated for 10 minutes under 16000 g to precipitate proteins. 100 μL of supernatant was used for LC/MS/MS analysis, to determine the amounts of the remaining test compounds and the control compound. The aliquots were detected in duplicate.
(§7) The instruments and conditions for LC analysis were as follows:
(§8) Shimadzu (Degasser DGU—20A3, Solvent Delivery Unit LC—20ADXR, System Controller CBM—20A, Column Oven CTO—10ASVP), CTC Analytics HTC PAL—XT System
(§9) Column: Phenomenex 5μ C 18 (2) (2.0×50 mm)
(§10) The instrument and conditions for MS/MS analysis were as follows: • AB API4000 LC/MS/MS instrument • Source: Turbo spray • Ionization mode: ESI • Type of scan: MRM • Collision gas: 6 L/min; curtain gas: 30 L/min; atomized gas: 50 L/min; auxiliary gas: 50 L/min; temperature: 500° C.; spray voltage: 4500 v.

[2] = 2 μM
Experimental: as §4, §5, §6, §7, §8, §9, §10

male SD rats [3] = experiment: Urine glucose at end of glucose tolerance test (Example 6); assay type: in vivo; settings: 10 mg/kg orally; urine collected at end of glucose tolerance test; Mean ± SD
Experimental: (§1) Preparation of the administrated drugs, and grouping and administration of the animals were the same as those in Example 5.
(§2) Before the test, the rats were fasted for 16 hours and then administrated orally with the blank solution or compounds. The blood glucose baseline level was measured at 8 hours after administration, then the rats in each group were administrated orally with 50% glucose aqueous solution in an amount of 2 g/kg. The blood samples (1 drop) were taken from tail veins of rats in each group at 15 minutes, 30 minutes, 1 hour and 2 hours after oral administration of glucose, and the blood glucose level was measured by using Accu-Chek Aviva system.
At the end of the test, urine of the rats in each group was collected, and then the urine glucose level was analyzed by using TOSHIBA TBA-40FR automatic biochemical analyzer.
(§3) Statistical analysis was conducted and the significance level was set to be P<0.05. The mean and standard deviation were calculated for all measurement parameters which were designed for study. One-way analysis of variance (ANOVA) was performed by software GraphPad Prism 5.0 after multiple comparisons among groups.

male SD rats [4] = experiment: Oral glucose tolerance test, glucose 15 minutes after administration (Example 5); assay type: in vivo; settings: 10 mg/kg orally, Mean ± SD
Experimental: Compound 1, compound 2 and compound 3 were respectively dissolved in blank solutions (5% 1-methyl-2-pyrrolidinone, 20% PEG-400 and 20 mM sodium diphosphate) in the concentration of 10 g/L.
Experimental animals are male SD rats of 6-8 weeks old, with weight of 190-215 g, which were purchased from Beijing Vital River Laboratory Animal Technology Co., Ltd. The SD rats were randomly divided into four groups based on body weight, each group containing three rats. Wherein group 1 is the blank control group in which the rats were administrated with the above blank solution.
Before the test, the rats were fasted for 16 hours and then administrated orally with the blank solution or compounds. The blood glucose baseline level was measured at 15 minutes after administration, then the rats in each group were administrated orally with 50% glucose aqueous solution in an amount of 2 g/kg. The blood samples (1 drop) were taken from tail veins of rats in each group at 15 minutes, 30 minutes, 1 hour and 2 hours after oral administration of glucose, and the blood glucose level was measured by using Accu-Chek Aviva system.
as §3

male SD rats [5] = experiment: Oral glucose tolerance test, glucose 8 hours after administration (Example 6), blood glucose; assay type: in vivo; settings: 10 mg/kg orally, Mean ± SD
Experimental: as §1, §2, §3

[6] = Pharmacokinetic test in vivo in SD rats; design: species or system male SD rats; settings: 10 mg/kg
Experimental: Compound 1, compound 2 and compound 3 were respectively dissolved in blank solution (5% 1-methyl-2-pyrrolidinone, 20% PEG-400 and 20 mM sodium diphosphate) in a concentration of 10 g/L.
Experimental animals are male SD rats of 6-8 weeks old, with weight of 190-215 g, which were purchased from Beijing Vital River Laboratory Animal Technology Co., Ltd. The SD rats were randomly divided into seven groups based on body weight, each group containing three rats. Wherein group 1 is the blank control group in which the blank solution was administrated intravenously.
Before the pharmacokinetic test, the SD rats were fasted for 16 hours, and then administrated intravenously (1 mL/kg; 10 mg/kg) or orally (1 mL/kg; 10 mg/kg) with single dose of the compound or blank solution according to Table 4. After administration 200 uL blood samples were collected regularly through jugular vein puncture, wherein for the group of animals administered intravenously, blood samples were collected at 0 minute, 15 minutes, 30 minutes, 1 hour, 2 hours, 4 hours, 8 hours and 24 hours after administration; for the group of animals administered orally, blood samples were collected at 0 minute, 15 minutes, 30 minutes, 45 minutes, 75 minutes, 135 minutes, 4 hours, 8 hours and 24 hours after administration. The blood samples were collected in a sample tube with EDTA, and immediately centrifuged under 4000 rpm for 0.5 minutes at 4° C., and then the plasma was transferred to another sample tube and stored at −20° C.
The method and instruments for pharmacokinetics test of samples were as follows: • HPLC: Shimadzu (DGV-20A3, Serial NO: SSI-3-0536; LC-20AD Serial NO: • L20104551674 USB and L20104551673 USB), CTC Analytics HTC PAL System (Serial NO: 4353); • MS: AB API4000 Q Trap LC/MS/MS instrument (Serial NO. AR19020706) • Column: Phenomenex Luna 5μ C18 (2.0×50 mm) • Mobile phase: 100% acetonitrile (2 mM ammonium acetate) and 100% water (2 mM ammonium acetate) • Quantitative Method: internal standard method

[7] = male, rat, plasma, iv, administrated intravenously
[8] = male, rat, plasma, po, administrated orally

In the case of `CCOc1ccc(Cc2cc([C@@H]3O[C@H](CO)[C@@H](O)[C@H](O)[C@H]3O)ccc2Cl)cc1` [Compound 1, Dapagliflozin, reference compound], the “Residual percentage of compounds in rat liver microsome” value ([1]; 0 min) was 100.00%, the “Residual percentage of compounds in rat liver microsome” value ([1]; 15 min) was 88.37% and the “Residual percentage of compounds in rat liver microsome” value ([1]; 30 min) was 90.68%. For the same compound, the “Residual percentage of compounds in rat liver microsome” value ([1]; 45 min) was 83.66%, the “Residual percentage of compounds in human liver microsome” value ([2]; 0 min) was 100.00% and the “Residual percentage of compounds in human liver microsome” value ([2]; 15 min) was 100.36%. For the same compound, the “Residual percentage of compounds in human liver microsome” value ([2]; 30 min) was 102.10%, the “Residual percentage of compounds in human liver microsome” value ([2]; 45 min) was 101.77% and the Urine glucose (male SD rats [3]) was 294.90 ± 12.29 mmol/L. The Blood glucose (male SD rats [4]; glucose 2 g/kg 15 minutes after administration, 15 minutes after glucose) was 97.2 ± 17.36 mg/dL, the Blood glucose (male SD rats [4]; glucose 2 g/kg 15 minutes after administration, 30 minutes after glucose) was 102.6 ± 20.44 mg/dL and the Blood glucose (male SD rats [4]; glucose 2 g/kg 15 minutes after administration, 1 hour after glucose) was 94.8 ± 17.11 mg/dL. For the same compound, the Blood glucose (male SD rats [4]; glucose 2 g/kg 15 minutes after administration, 2 hours after glucose) was 72.0 ± 10.95 mg/dL, the ΔAUC (male SD rats [4]; glucose 2 g/kg 15 minutes after administration) was 20.2 ± 19.32 mg·h/dL and the Blood glucose (male SD rats [4]; time 0 (baseline 15 minutes after administration, before glucose 2 g/kg)) was 85.2 ± 4.53 mg/dL. The Blood glucose (male SD rats [5]; glucose 2 g/kg 8 hours after administration, 15 minutes after glucose) was 96.60 ± 21.70 mg/dL, the Blood glucose (male SD rats [5]; glucose 2 g/kg 8 hours after administration, 30 minutes after glucose) was 131.40 ± 8.25 mg/dL and the Blood glucose (male SD rats [5]; glucose 2 g/kg 8 hours after administration, 1 hour after glucose) was 123.60 ± 4.53 mg/dL. The Blood glucose (male SD rats [5]; glucose 2 g/kg 8 hours after administration, 2 hours after glucose) was 72.60 ± 6.81 mg/dL, the ΔAUC (male SD rats [5]; glucose 2 g/kg 8 hours after administration) was 107.90 ± 8.53 mg·h/dL and the Blood glucose (male SD rats [5]; time 0 (baseline 8 hours after administration, before glucose 2 g/kg)) was 50.40 ± 9.52 mg/dL. It also gave a CI_obs ([6]; administrated intravenously) of 2.99 mL/min/kg, a Vss_obs ([6]; administrated intravenously) of 0.903 L/kg and an AUC(0-inf) [6, 7] of 56500 ng·h/mL. The AUC(0-t) [6, 7] was 55800 ng·h/mL, the C0 [6, 7] was 11000 ng/mL and the MRT [6, 7] was 4.76 h. For the same compound, the half-life [6, 7] was 3.95 h, the AUC(0-inf) [6, 8] was 39100 ng·h/mL and the AUC(0-t) [6, 8] was 41400 ng·h/mL. The C0 [6, 8] was 3880 ng/mL, the Tmax [6, 8] was 1.25 h and the half-life [6, 8] was 4.14 h. For the same compound, the bioavailability ([6]; male, rat, plasma, po, administrated orally, read-out: F (oral bioavailability)) was 69.1%.
